Key:
[1] = stability of discodermolide infusion solution; type: physicochemical; details: infusion concentrate mixed with diluent; infusion solution 0.1-2.0 mg/mL, 0.1-1.5 mg/mL, 0.5-8.0 mg/mL or 0.77 mg/mL
Method: The amount of diluent used in admixture with the infusion concentrate to form an infusion solution may be chosen so as to obtain a desired concentration of discodermolide in the infusion solution. The amount of diluent used is also chosen so that the solution is stable long enough to be administered. Concentration of infusion solutions are 0.1-2.0 mg/mL, or 0.1-1.5 mg/mL or preferably 0.5-8.0 mg/mL or 0.77 mg/mL. Such solutions are found to be stable for up to 8 hours.

[2] = precipitation on direct i.v. infusion followed by normal saline flush; type: physicochemical; details: 0.77 mg/mL in 40% propylene glycol, 10% ethanol, 50% normal saline; direct i.v. infusion into the vein followed by normal saline flush
Method: Preferably the infusion solution of the present invention is prepared by mixing the infusion concentrate with a diluent, such as 16.3% W/v ethanol in saline in a suitable container. A preferred formulation comprises 1 mL of 2 mg/mL infusion concentrate diluted with 1.6 mL of 16.3% w/v ethanol in saline to yield an infusion solution containing 0.77 mg/mL discodermolide in 40% propylene glycol, 10% ethanol and 50% normal saline. This solution is administered via iv infusion, or push into Y tubing containing a 0.9% normal saline drip, directly into the vein and the drug solution residue in the tubing will be flushed with normal saline. The volume of discodermolide solution given via i.v. push will vary from 0.3 mL (at the starting does of 0.2 mg or 0.13 mg/m^2) to 26 mL (for a dose of 20 mg or 11.43 mg/m^2) or 43 mL (for a dose of 33 mg or 19.2 mg/m^2).

With `C=C/C=C\[C@H](C)[C@H](OC(N)=O)[C@@H](C)[C@H](O)[C@@H](C)C/C(C)=C\[C@H](C)[C@@H](O)[C@@H](C)/C=C\[C@@H](O)C[C@@H]1OC(=O)[C@H](C)[C@@H](O)[C@H]1C` [discodermolide] the “stability of infusion solution (time stable)” value [1] was “up to 8 hours” and the precipitation of discodermolide [2] was “will not cause any precipitation”.

From patent US20050176812A1, “Method of treating cancer” (priority 2003, published 2005)
